A value given as a limit tells only on which side of the number the result lay.

Broadly, the IC50 is the concentration that inhibits the measured activity by half. Read a high IC50 as a need for much substance.

The target of the experiment is T1, human glycine transporter-2 (GlyT2) (Homo sapiens, UniProt Q9Y345).
T1 construct: The entire coding region of the human GlyT2 cDNA was cloned into the mammalian expression vector pCINeo; expressed in transfected cells; host or cells: Cos-7 cells (African green monkey kidney), stably transfected, vector pCINeo, G418 selection
T1 sequence (Q9Y345 1-797): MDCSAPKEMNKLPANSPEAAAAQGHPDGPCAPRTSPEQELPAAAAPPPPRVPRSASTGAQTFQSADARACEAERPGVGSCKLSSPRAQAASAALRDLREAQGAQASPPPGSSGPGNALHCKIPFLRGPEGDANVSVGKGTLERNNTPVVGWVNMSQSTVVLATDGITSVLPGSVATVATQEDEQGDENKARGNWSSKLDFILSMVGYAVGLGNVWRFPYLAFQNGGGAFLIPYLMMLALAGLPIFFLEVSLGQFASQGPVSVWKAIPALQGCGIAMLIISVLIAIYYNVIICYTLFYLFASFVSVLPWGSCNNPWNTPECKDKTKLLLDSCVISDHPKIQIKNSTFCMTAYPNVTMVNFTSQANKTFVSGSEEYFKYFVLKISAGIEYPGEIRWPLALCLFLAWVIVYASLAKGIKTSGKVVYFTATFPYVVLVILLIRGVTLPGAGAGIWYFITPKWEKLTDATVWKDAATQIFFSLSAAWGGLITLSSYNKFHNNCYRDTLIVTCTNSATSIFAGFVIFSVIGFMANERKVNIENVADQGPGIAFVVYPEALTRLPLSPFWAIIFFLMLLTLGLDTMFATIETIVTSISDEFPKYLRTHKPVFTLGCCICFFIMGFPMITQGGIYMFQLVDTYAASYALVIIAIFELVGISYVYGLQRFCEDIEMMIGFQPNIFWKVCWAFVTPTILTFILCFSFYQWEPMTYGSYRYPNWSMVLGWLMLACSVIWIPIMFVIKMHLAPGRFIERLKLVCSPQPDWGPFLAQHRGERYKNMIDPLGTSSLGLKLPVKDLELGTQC
The experiment is described as follows: GlyT2 inhibitory activity: inhibition of [14C]-glycine uptake in COS-7 cells transfected with human GlyT2. In kind it is cell-based. As to conditions: Cos-7 cells stably transfected with human GlyT2; 20 μM 14C-glycine, 2 h at 37° C. On the procedure: GlyT2 antagonist activity of representative compounds of the invention was determined in accordance with the assay described in the Examples and by measuring the ability of compounds to inhibit the uptake of [^14C]-glycine in COS-7 cells transfected with the human glycine transporter-2 (GlyT2). The GlyT2 antagonist activities of these representative compounds are set forth hereinafter in Table 1.
Cos-7 cells (African green monkey, kidney) from American Type Culture Collection were grown in DMEM supplemented with 10% fetal bovine serum. The entire coding region of the human GlyT2 cDNA was cloned into the mammalian expression vector pCINeo, and then stably transfected into Cos-7 cells. Transfection was performed essentially as described by T. W. Lovenberg et al. (Mol. Pharmacol. 1999, 55:1101-1107). Cells are grown to 70-80% confluence, removed from the plate with trypsin, and pelleted in a clinical centrifuge. The pellet is resuspended in 400 μL complete medium and transferred to an electroporation cuvette with a 0.4 cm gap between the electrodes (Bio-Rad, 165-2088). One microgram of supercoiled GlyT2 cDNA is added to the cells, and the suspension is mixed. The voltage for the electroporation is set at 0.25 kV, and the capacitance is set at 960 μF. After electroporation, the cuvette contents are diluted to 10 mL with complete medium, and 0.5 mL, 1.0 mL, 2.0 mL and remainder (−6.5 mL) portions are plated onto four 10-cm dishes. The cells are incubated 24 h before adding 600 μg/mL G418. Colonies that survive selection are isolated and tested for GlyT2 expression.
The day before the assay, the GlyT2 expressing cells were plated into 96-well scintillating microplates (Amersham, RPNQ 0160) at a density of approximately 20,000 cells per well. Cells were grown overnight at 37° C. in 5% CO2 and then washed once with 37° C. HEPES buffered saline (HBS: 150 mM NaCl, 20 mM HEPES, 1 mM CaCl2, 10 mM glucose, 5 mM KCl, 1 mM MgCl2; pH 7.4). Eighty microliters of 37° C. HBS was subsequently added to each well. Test solutions of GlyT2 inhibitors were prepared in HBS from DMSO stock solutions, and 5 μL of test solution was added to each test well. Total transport and non-specific background were determined by adding 5 μL HBS or 5 μL 2 M glycine, respectively, to the appropriate control wells. Plates were then left at room temperature for 5 min before the addition of 20 μL of 100 μM ^14C-glycine (NEN, NEC 048H) to each well for a final concentration of 20 μM. Plates were incubated for 2 h at 37° C. with 5% CO2. After 2 h the reaction mixtures were removed by aspiration, and the plates were washed once with ice-cold HBS. Plates were sealed with TopSeal (Packard, 6005185) and counted on a Packard TopCount® scintillation counter.
`CC(C)Oc1ccccc1NCCNCc1cccc(C(=O)N2CCCCC2)c1` [Example 1, (3-{[2-(2-Isopropoxy-phenylamino)-ethylamino]-methyl}-phenyl)-piperidin-1-yl-methanone]: the midpoint of inhibition, the IC50, lay at 0.4 µM.
Molecule `CC(C)Oc1ccccc1NCCCNCc1cccc(C(=O)N2CCCCC2)c1` [Example 2, (3-{[3-(2-Isopropoxy-phenylamino)-propylamino]-methyl}-phenyl)-piperidin-1-yl-methanone] showed a concentration for half-maximal inhibition (IC50) of 4 µM.
`O=C(c1cccc(CNCCNc2ccccc2)c1)N1CCCCC1` [Example 3, {3-[(2-Phenylamino-ethylamino)-methyl]-phenyl}-piperidin-1-yl-methanone] displayed a concentration for half-maximal inhibition (IC50) of more than 10 µM.
With `O=C(c1cccc(CNCCNc2ccccc2O)c1)N1CCCCC1` [Example 4, (3-{[2-(2-Hydroxy-phenylamino)-ethylamino]-methyl}-phenyl)-piperidin-1-yl-methanone], the IC50 was 20 µM.
In turn, `COc1ccccc1NCCNCc1cccc(C(=O)N2CCCCC2)c1` [Example 5, (3-{[2-(2-Methoxy-phenylamino)-ethylamino]-methyl}-phenyl)-piperidin-1-yl-methanone] yielded a half-inhibitory concentration (IC50) of 2.5 µM.
`CCC(CC)Oc1ccccc1NCCNCc1cccc(C(=O)N2CCCCC2)c1` [Example 6, [3-({2-[2-(1-Ethyl-propoxy)-phenylamino]-ethylamino}-methyl)-phenyl]-piperidin-1-yl-methanone]: the concentration for half-maximal inhibition (IC50) is 3 µM.
`O=C(c1cccc(CNCCNc2ccccc2OC2CCCC2)c1)N1CCCCC1` [Example 7, (3-{[2-(2-Cyclopentyloxy-phenylamino)-ethylamino]-methyl}-phenyl)-piperidin-1-yl-methanone]: the 50% inhibitory concentration (IC50) was found to be 1.2 µM.
In turn, `O=C(c1cccc(CNCCNc2ccccc2Oc2ccccc2)c1)N1CCCCC1` [Example 8, (3-{[2-(2-Phenoxy-phenylamino)-ethylamino]-methyl}-phenyl)-piperidin-1-yl-methanone] displayed an IC50 of 3 µM.
In turn, `COc1cccc(NCCNCc2cccc(C(=O)N3CCCCC3)c2)c1` [Example 9, (3-{[2-(3-Methoxy-phenylamino)-ethylamino]-methyl}-phenyl)-piperidin-1-yl-methanone] registered an IC50 of 0.8 µM.
In turn, `CC(C)Oc1cccc(NCCNCc2cccc(C(=O)N3CCCCC3)c2)c1` [Example 10, (3-{[2-(3-Isopropoxy-phenylamino)-ethylamino]-methyl}-phenyl)-piperidin-1-yl-methanone] registered an IC50 of 1 µM.
The same measure for `O=C(c1cccc(CNCCNc2ccccc2[N+](=O)[O-])c1)N1CCCCC1` [Example 11, (3-{[2-(2-Nitro-phenylamino)-ethylamino]-methyl}-phenyl)-piperidin-1-yl-methanone]: 5 µM; for `Nc1ccccc1NCCNCc1cccc(C(=O)N2CCCCC2)c1` [Example 12, (3-{[2-(2-Amino-phenylamino)-ethylamino]-methyl}-phenyl)-piperidin-1-yl-methanone]: more than 10 µM; for `CC(C)Nc1ccccc1NCCNCc1cccc(C(=O)N2CCCCC2)c1` [Example 13, (3-{[2-(2-Isopropylamino-phenylamino)-ethylamino]-methyl}-phenyl)-piperidin-1-yl-methanone]: 0.55 µM.
`CS(=O)(=O)Nc1ccccc1NCCNCc1cccc(C(=O)N2CCCCC2)c1` [Example 14, N-(2-{2-[3-(Piperidine-1-carbonyl)-benzylamino]-ethylamino}-phenyl)methanesulfonamide]: the IC50 was 3.1 µM.
`O=C(Nc1ccccc1)Nc1ccccc1NCCNCc1cccc(C(=O)N2CCCCC2)c1` [Example 15, 1-Phenyl-3-(2-{2-[3-(piperidine-1-carbonyl)-benzylamino]-ethylamino}-phenyl)-urea] showed an IC50 of more than 10 µM.
The molecule `O=C(NCc1ccccc1)Nc1ccccc1NCCNCc1cccc(C(=O)N2CCCCC2)c1` [Example 16, 1-Benzyl-3-(2-{2-[3-(piperidine-1-carbonyl)-benzylamino]-ethylamino}-phenyl)-urea] registered an IC50 of 3.1 µM.
